“And” between values parts separate entries of the source, which are not always exact repeats. Equal values may be shown once.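 48-hour exposure; five concentrations; linearly interpolated endpoints. At the TGI there is no net growth.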 Bounds are passed on as bounds.

One experiment has as its system SF-539 CNS. Description: inhibition of tumour cell growth, NCI panel, 48 h.
As for `CC1(C)N=C(/C(Cl)=[N+](/[O-])C(=O)c2ccc(F)cc2)C(C)(C)N1O`, the TGI stood at 40.1 µM.

`C(/c1ccco1)=c1/nc(-c2ccccc2)n2c1nc1ccccc12` gave a TGI greater than 100 µM.

Consider `COc1cc2c(cc1OC)C(c1ccccc1CCCCl)=NCC2`, for which the TGI was greater than 100 µM.

Take `Clc1cc(OC2C3CC4CC(C3)CC2C4)nc(Cl)n1` (centres undefined): the TGI is 38.8 µM.

In turn, `Cc1ccc(SCC(CSCCO)OCn2cnc3c2NC(N)=NC32OCCO2)cc1` (centres undefined) had a TGI greater than 100 µM.

`Cc1cccc(/C=N/NC(=S)Nc2ccccc2)n1` gave a TGI of 10.4 µM.

As for `CC(C)c1ccc(/C=C2/C=C(c3ccc4ccccc4c3)OC2=O)cc1`, the TGI is greater than 100 µM.

For `COc1cc(/C=C/C(=N\NS(=O)(=O)c2ccc(C)cc2)c2sc(NNC(C)=O)nc2C)ccc1O`, the TGI was greater than 100 µM.

On to `COc1ccc(/C=C2\CCC(C)C3=C2NC(=S)NC3c2ccc(OC)c(OC)c2)cc1OC` (centres undefined), for which the TGI was greater than 31.6 µM.

`NC(=O)C(c1ccccc1)N1OC2C(=O)N(c3ccccc3)C(=O)C2C1c1c2ccccc2c(Cl)c2ccccc12` (centres undefined) displayed a TGI greater than 100 µM.

In the case of `CNC(=O)OCC1=C(COC(=O)NC)C(C)N(c2ccc(OC)cc2)C1` (centres undefined), the TGI was greater than 100 µM.

Consider `N#CC1=C(N)N(c2ccccc2)C(c2ccco2)C1(C#N)C#N` (centres undefined), for which the TGI was determined as 41.2 µM.

Consider `N=c1n(C(=O)N2CCCC2)c2cc(Cl)ccc2n1C1=NCCN1`, for which the TGI was greater than 100 µM.

As to `O=C(O)CN(CC(=O)O)C1CCCCC1N(CC(=O)O)CC(=O)NCCN=C=S` (centres undefined), the TGI was greater than 100 µM.

For a further experiment, the system named is RPMI-8226 leukemia. The experiment is described as follows: inhibition of tumour cell growth, NCI panel, 48 h.
Molecule `C[C@@]12C[C@@H](c3ccccc3O1)N1CCCCSC1=N2` registered a TGI greater than 100 µM.

For the molecule `COc1ccc(N2C(=O)C3c4[nH]c5ccccc5c4C4CCC(C(C)(C)C)CC4C3C2=O)c(C)c1` (centres undefined), the TGI was greater than 100 µM.

The molecule `C=C1c2nc3ccccc3n2C=C(c2ccccc2)N1c1ccc([N+](=O)[O-])cc1` yielded a TGI greater than 55.7 µM.

For the molecule `O=c1[nH]cc(N=Cc2cc(Cl)cc(Cl)c2O)c(=O)[nH]1`, the TGI is 70.6 µM.

Take `Cc1c2cnccc2c(C)c2c1c1ccccc1n2CCCN`: the TGI stood at 0.671 µM.

The molecule `O=C(NNC(=O)c1ccccc1SSc1ccccc1C(=O)NNC(=O)c1ccccc1S)c1ccccc1S` displayed a TGI greater than 100 µM.

In turn, `Cc1ccccc1-n1c(=O)c2ncn(CCCl)c2n(-c2ccccc2C)c1=S` had a TGI greater than 100 µM.

For `CC1(C)N=C(/C(Cl)=[N+](/[O-])C(=O)c2ccc(F)cc2)C(C)(C)N1O`, the TGI is 38.1 µM.

Regarding `C(/c1ccco1)=c1/nc(-c2ccccc2)n2c1nc1ccccc12`, the TGI was found to be 44.4 µM.

In the case of `COc1cc2c(cc1OC)C(c1ccccc1CCCCl)=NCC2`, the TGI is 42 µM.

`Clc1cc(OC2C3CC4CC(C3)CC2C4)nc(Cl)n1` (centres undefined) yielded a TGI of 43 µM.

Molecule `Cc1ccc(SCC(CSCCO)OCn2cnc3c2NC(N)=NC32OCCO2)cc1` (centres undefined) showed a TGI greater than 100 µM.

`Cc1cccc(/C=N/NC(=S)Nc2ccccc2)n1` came in with a TGI of 75.6 µM.

`CC(C)c1ccc(/C=C2/C=C(c3ccc4ccccc4c3)OC2=O)cc1`: the TGI was found to be 93.7 µM.

With `COc1cc(/C=C/C(=N\NS(=O)(=O)c2ccc(C)cc2)c2sc(NNC(C)=O)nc2C)ccc1O`, the TGI is greater than 100 µM.

In turn, `COc1ccc(/C=C2\CCC(C)C3=C2NC(=S)NC3c2ccc(OC)c(OC)c2)cc1OC` (centres undefined) gave a TGI greater than 31.6 µM.

`NC(=O)C(c1ccccc1)N1OC2C(=O)N(c3ccccc3)C(=O)C2C1c1c2ccccc2c(Cl)c2ccccc12` (centres undefined) gave a TGI greater than 100 µM.

Regarding `CNC(=O)OCC1=C(COC(=O)NC)C(C)N(c2ccc(OC)cc2)C1` (centres undefined), the TGI was greater than 100 µM.

For the molecule `N#CC1=C(N)N(c2ccccc2)C(c2ccco2)C1(C#N)C#N` (centres undefined), the TGI is 45.5 µM.

Regarding `N=c1n(C(=O)N2CCCC2)c2cc(Cl)ccc2n1C1=NCCN1`, the TGI was greater than 100 µM.

In turn, `O=C(O)CN(CC(=O)O)C1CCCCC1N(CC(=O)O)CC(=O)NCCN=C=S` (centres undefined) registered a TGI greater than 100 µM.

In a further experiment the test system is NCI/ADR-RES ovarian. Description: inhibition of tumour cell growth, NCI panel, 48 h.
`C[C@@]12C[C@@H](c3ccccc3O1)N1CCCCSC1=N2`: the TGI was greater than 100 µM.

`COc1ccc(N2C(=O)C3c4[nH]c5ccccc5c4C4CCC(C(C)(C)C)CC4C3C2=O)c(C)c1` (centres undefined) came in with a TGI greater than 100 µM.

Molecule `C=C1c2nc3ccccc3n2C=C(c2ccccc2)N1c1ccc([N+](=O)[O-])cc1` returned a TGI of 44.5 µM.

The molecule `O=c1[nH]cc(N=Cc2cc(Cl)cc(Cl)c2O)c(=O)[nH]1` showed a TGI of 47.8 µM.

Regarding `Cc1c2cnccc2c(C)c2c1c1ccccc1n2CCCN`, the TGI was 1.04 µM and 1.16 µM.

`O=C(NNC(=O)c1ccccc1SSc1ccccc1C(=O)NNC(=O)c1ccccc1S)c1ccccc1S` displayed a TGI greater than 73.6 µM.

With `Cc1ccccc1-n1c(=O)c2ncn(CCCl)c2n(-c2ccccc2C)c1=S`, the TGI was greater than 100 µM.

`CC1(C)N=C(/C(Cl)=[N+](/[O-])C(=O)c2ccc(F)cc2)C(C)(C)N1O` yielded a TGI greater than 100 µM.

Molecule `C(/c1ccco1)=c1/nc(-c2ccccc2)n2c1nc1ccccc12` showed a TGI greater than 100 µM.

Take `COc1cc2c(cc1OC)C(c1ccccc1CCCCl)=NCC2`: the TGI is greater than 100 µM.

Molecule `Clc1cc(OC2C3CC4CC(C3)CC2C4)nc(Cl)n1` (centres undefined) came in with a TGI of 88.5 µM.

As for `Cc1ccc(SCC(CSCCO)OCn2cnc3c2NC(N)=NC32OCCO2)cc1` (centres undefined), the TGI was greater than 100 µM.

Consider `Cc1cccc(/C=N/NC(=S)Nc2ccccc2)n1`, for which the TGI amounted to 10.8 µM.

For the molecule `CC(C)c1ccc(/C=C2/C=C(c3ccc4ccccc4c3)OC2=O)cc1`, the TGI is greater than 100 µM.

In turn, `COc1cc(/C=C/C(=N\NS(=O)(=O)c2ccc(C)cc2)c2sc(NNC(C)=O)nc2C)ccc1O` gave a TGI greater than 100 µM.

`COc1ccc(/C=C2\CCC(C)C3=C2NC(=S)NC3c2ccc(OC)c(OC)c2)cc1OC` (centres undefined): the TGI is greater than 100 µM.

Molecule `NC(=O)C(c1ccccc1)N1OC2C(=O)N(c3ccccc3)C(=O)C2C1c1c2ccccc2c(Cl)c2ccccc12` (centres undefined) yielded a TGI greater than 100 µM.

`CNC(=O)OCC1=C(COC(=O)NC)C(C)N(c2ccc(OC)cc2)C1` (centres undefined) had a TGI greater than 100 µM.

On to `N#CC1=C(N)N(c2ccccc2)C(c2ccco2)C1(C#N)C#N` (centres undefined), for which the TGI came to 56.2 µM.

Molecule `N=c1n(C(=O)N2CCCC2)c2cc(Cl)ccc2n1C1=NCCN1` had a TGI greater than 100 µM.

In the case of `O=C(O)CN(CC(=O)O)C1CCCCC1N(CC(=O)O)CC(=O)NCCN=C=S` (centres undefined), the TGI is greater than 100 µM.

Another experiment has as its system MDA-MB-435. Description: inhibition of tumour cell growth, NCI panel, 48 h.
In turn, `C[C@@]12C[C@@H](c3ccccc3O1)N1CCCCSC1=N2` came in with a TGI greater than 100 µM.

Consider `COc1ccc(N2C(=O)C3c4[nH]c5ccccc5c4C4CCC(C(C)(C)C)CC4C3C2=O)c(C)c1` (centres undefined), for which the TGI is greater than 100 µM.

`C=C1c2nc3ccccc3n2C=C(c2ccccc2)N1c1ccc([N+](=O)[O-])cc1`: the TGI was 32.6 µM.

The molecule `O=c1[nH]cc(N=Cc2cc(Cl)cc(Cl)c2O)c(=O)[nH]1` came in with a TGI of 61.8 µM.

Molecule `Cc1c2cnccc2c(C)c2c1c1ccccc1n2CCCN` had a TGI of 0.46 µM.

`O=C(NNC(=O)c1ccccc1SSc1ccccc1C(=O)NNC(=O)c1ccccc1S)c1ccccc1S` yielded a TGI greater than 100 µM.

The molecule `Cc1ccccc1-n1c(=O)c2ncn(CCCl)c2n(-c2ccccc2C)c1=S` gave a TGI greater than 100 µM.

For `CC1(C)N=C(/C(Cl)=[N+](/[O-])C(=O)c2ccc(F)cc2)C(C)(C)N1O`, the TGI was determined as 49.3 µM.

As to `C(/c1ccco1)=c1/nc(-c2ccccc2)n2c1nc1ccccc12`, the TGI is greater than 100 µM.

The molecule `COc1cc2c(cc1OC)C(c1ccccc1CCCCl)=NCC2` gave a TGI of 45.9 µM.

The molecule `Clc1cc(OC2C3CC4CC(C3)CC2C4)nc(Cl)n1` (centres undefined) registered a TGI of 37.9 µM.

As to `Cc1ccc(SCC(CSCCO)OCn2cnc3c2NC(N)=NC32OCCO2)cc1` (centres undefined), the TGI was greater than 100 µM.

`Cc1cccc(/C=N/NC(=S)Nc2ccccc2)n1` registered a TGI greater than 100 µM.

(Values after PubChem BioAssay (NCI).)
